Measured values as given in PubChem BioAssay (NCI).
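Assay format: 96-well plates, 48-hour exposure. TGI marks complete inhibition of growth.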

Legend:
Test in all cases: inhibition of tumour cell growth, NCI panel, 48 h
[1] = tested on: 786-0 renal
[2] = tested on: A498 renal
[3] = tested on: A549 NSCLC
[4] = tested on: ACHN renal
[5] = tested on: BT-549 breast
[6] = tested on: CAKI-1 renal
[7] = tested on: CCRF-CEM leukemia
[8] = tested on: COLO 205 colon
[9] = tested on: DU-145 prostate
[10] = tested on: EKVX NSCLC
[11] = tested on: HCC-2998 colon
[12] = tested on: HCT-116 colon
[13] = tested on: HCT-15 colon
[14] = tested on: HL-60(TB) leukemia
[15] = tested on: HOP-62 NSCLC
[16] = tested on: HOP-92 NSCLC
[17] = tested on: HS 578T breast
[18] = tested on: HT29 colon
[19] = tested on: IGROV1 ovarian
[20] = tested on: K-562 leukemia
[21] = tested on: KM12 colon
[22] = tested on: LOX IMVI melanoma
[23] = tested on: M14 melanoma
[24] = tested on: MALME-3M melanoma
[25] = tested on: MCF7 breast
[26] = tested on: MDA-MB-231 breast
[27] = tested on: MDA-MB-435
[28] = tested on: MDA-N
[29] = tested on: MOLT-4 leukemia
[30] = tested on: NCI-H226 lung
[31] = tested on: NCI-H23 lung
[32] = tested on: NCI-H460 lung
[33] = tested on: NCI-H522 lung
[34] = tested on: OVCAR-3 ovarian
[35] = tested on: OVCAR-4 ovarian
[36] = tested on: OVCAR-5 ovarian
[37] = tested on: OVCAR-8 ovarian
[38] = tested on: PC-3 prostate
[39] = tested on: RPMI-8226 leukemia
[40] = tested on: RXF 393 renal
[41] = tested on: SF-268 CNS
[42] = tested on: SF-295 CNS
[43] = tested on: SF-539 CNS
[44] = tested on: SK-MEL-2 melanoma
[45] = tested on: SK-MEL-28 melanoma
[46] = tested on: SK-MEL-5 melanoma
[47] = tested on: SK-OV-3 ovarian
[48] = tested on: SN12C renal
[49] = tested on: SNB-19 CNS
[50] = tested on: SNB-75 CNS
[51] = tested on: SR leukemia
[52] = tested on: SW-620 colon
[53] = tested on: T-47D breast
[54] = tested on: TK-10 renal
[55] = tested on: U251 CNS
[56] = tested on: UACC-257 melanoma
[57] = tested on: UACC-62 melanoma
[58] = tested on: UO-31 renal
[59] = tested on: NCI/ADR-RES ovarian

COCC1OC(OC2C3=C(C(C)C)CCC3(C)/C=C3\C(CCC3(O)COC)C(C)C2O)C(O)C2OC3OC12OC3(C)C1CO1 (stereo not given)
TGI [1]: > 100 µM
TGI [2]: > 100 µM
TGI [3]: > 100 µM
TGI [4]: > 100 µM
TGI [5]: 87.8 µM
TGI [6]: 99.7 µM
TGI [7]: 59.6 µM
TGI [8]: > 100 µM
TGI [9]: > 100 µM
TGI [10]: > 100 µM
TGI [11]: > 100 µM
TGI [12]: > 100 µM
TGI [13]: > 100 µM
TGI [14]: 54.1 µM
TGI [15]: > 100 µM
TGI [16]: > 100 µM
TGI [17]: > 100 µM
TGI [18]: > 100 µM
TGI [19]: > 100 µM
TGI [20]: > 100 µM
TGI [21]: > 100 µM
TGI [22]: 99.3 µM
TGI [23]: > 100 µM
TGI [24]: > 100 µM
TGI [25]: > 100 µM
TGI [26]: > 100 µM
TGI [27]: > 100 µM
TGI [28]: > 100 µM
TGI [29]: 54 µM
TGI [30]: 43.1 µM
TGI [31]: > 100 µM
TGI [32]: > 100 µM
TGI [33]: 82.4 µM
TGI [34]: > 100 µM
TGI [35]: > 100 µM
TGI [36]: > 100 µM
TGI [37]: > 100 µM
TGI [38]: > 100 µM
TGI [39]: > 100 µM
TGI [40]: > 100 µM
TGI [41]: 68.4 µM
TGI [42]: > 100 µM
TGI [43]: > 100 µM
TGI [44]: > 100 µM
TGI [45]: > 100 µM
TGI [46]: 67.3 µM
TGI [47]: > 100 µM
TGI [48]: > 100 µM
TGI [49]: > 100 µM
TGI [50]: 92.7 µM
TGI [51]: 75.7 µM
TGI [52]: > 100 µM
TGI [53]: > 100 µM
TGI [54]: > 100 µM
TGI [55]: 98.8 µM
TGI [56]: > 100 µM
TGI [57]: > 100 µM
TGI [58]: 72.1 µM

O=C(O)C1C(C(=O)Nc2ccc3c(c2)Cc2ccccc2-3)C2(Cl)C(Cl)=C(Cl)C1(Cl)C2(Cl)Cl (stereo not given)
TGI [1]: > 100 µM
TGI [2]: 47.7 µM
TGI [3]: > 100 µM
TGI [4]: > 100 µM
TGI [5]: 39.2 µM
TGI [6]: > 100 µM
TGI [7]: 38 µM
TGI [8]: 31.4 µM
TGI [9]: > 100 µM
TGI [10]: 97.6 µM
TGI [11]: 34.8 µM
TGI [12]: 38.1 µM
TGI [13]: 48.5 µM
TGI [14]: 55.8 µM
TGI [15]: > 100 µM
TGI [16]: 57.3 µM
TGI [17]: 49.2 µM
TGI [18]: 41.7 µM
TGI [19]: 44.4 µM
TGI [20]: 13.5 µM
TGI [21]: 39 µM
TGI [22]: 32.3 µM
TGI [23]: 42.7 µM
TGI [24]: 44.6 µM
TGI [25]: 62.2 µM
TGI [26]: 41.6 µM
TGI [27]: 76.8 µM
TGI [28]: > 100 µM
TGI [29]: 26.1 µM
TGI [30]: 88 µM
TGI [31]: 31.3 µM
TGI [33]: 39.2 µM
TGI [59]: > 100 µM
TGI [34]: 35.9 µM
TGI [35]: > 100 µM
TGI [36]: 38.6 µM
TGI [37]: 43 µM
TGI [38]: 30 µM
TGI [39]: 32 µM
TGI [40]: 43.1 µM
TGI [41]: 64.5 µM
TGI [42]: > 100 µM
TGI [43]: 28.9 µM
TGI [44]: 36.2 µM
TGI [45]: 46.3 µM
TGI [46]: 27.5 µM
TGI [47]: > 100 µM
TGI [48]: > 100 µM
TGI [49]: > 100 µM
TGI [50]: 91.8 µM
TGI [52]: 64.5 µM
TGI [53]: > 100 µM
TGI [54]: 68.1 µM
TGI [55]: 29.7 µM
TGI [56]: 48.2 µM
TGI [57]: 31.1 µM
TGI [58]: 55.5 µM

CC(N)C(C)Cc1ccccc1 (stereo not given)
TGI [1]: > 100 µM
TGI [2]: > 100 µM
TGI [3]: > 100 µM
TGI [4]: > 100 µM
TGI [5]: > 100 µM
TGI [6]: > 100 µM
TGI [8]: > 100 µM
TGI [9]: > 100 µM
TGI [10]: > 100 µM
TGI [11]: > 100 µM
TGI [12]: > 100 µM
TGI [13]: > 100 µM
TGI [14]: > 100 µM
TGI [15]: > 100 µM
TGI [16]: > 100 µM
TGI [17]: > 100 µM
TGI [18]: > 100 µM
TGI [19]: > 100 µM
TGI [20]: > 100 µM
TGI [21]: > 100 µM
TGI [22]: > 100 µM
TGI [23]: > 100 µM
TGI [24]: > 100 µM
TGI [25]: > 100 µM
TGI [26]: > 100 µM
TGI [27]: > 100 µM
TGI [28]: > 100 µM
TGI [29]: > 100 µM
TGI [30]: > 100 µM
TGI [31]: > 100 µM
TGI [32]: > 100 µM
TGI [33]: > 100 µM
TGI [59]: > 100 µM
TGI [34]: > 100 µM
TGI [35]: > 100 µM
TGI [36]: > 100 µM
TGI [37]: > 100 µM
TGI [38]: > 100 µM
TGI [39]: > 100 µM
TGI [40]: > 100 µM
TGI [41]: > 100 µM
TGI [42]: > 100 µM
TGI [45]: > 100 µM
TGI [46]: > 100 µM
TGI [47]: > 100 µM
TGI [48]: > 100 µM
TGI [49]: > 100 µM
TGI [50]: > 100 µM
TGI [52]: > 100 µM
TGI [53]: > 100 µM
TGI [54]: > 100 µM
TGI [55]: > 100 µM
TGI [56]: > 100 µM
TGI [57]: > 100 µM
TGI [58]: > 100 µM
